Legend:
HiBit-BRM fusion protein = target: T1, HiBit-BRM fusion protein (Homo sapiens, UniProt P51531); experiment: HiBiT-BRM cell-based degradation assay (Nano-Glo HiBiT Lytic Detection, 24 h); conditions: HeLa cells expressing HiBiT-BRM; for DC50: read-out: BRM HiBit Degradation IC50; for BRM HiBit Degradation Maximum measured: top dose 30 μM
T1 construct: expressed in transfected cells
Procedure, shortened: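 Residual HiBiT-BRM in a stable HeLa line was measured by Nano-Glo lytic luminescence after 24 h compound exposure (top final dose 30 μM, 3-fold, 10 points, duplicate). Values are % degradation, scaled between DMSO-treated cells and cells given 2 μM of a known BRM/BRG1 degrader.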

[1] = target: T2, HiBit-BRG1 fusion protein (Homo sapiens, UniProt P51532); experiment: HiBiT-BRG1 cell-based degradation assay (Nano-Glo HiBiT Lytic Detection, 24 h); conditions: HeLa cells expressing HiBit-BRG1 and LgBit; for DC50: read-out: BRG1 HiBit Degradation IC50; for Dmax: HeLa, top dose 30 μM, read-out: BRG1 HiBit Degradation Maximum measured
T2 construct: expressed in transfected cells
T2 sequence (P51532 whole entry, the tested form may be a part): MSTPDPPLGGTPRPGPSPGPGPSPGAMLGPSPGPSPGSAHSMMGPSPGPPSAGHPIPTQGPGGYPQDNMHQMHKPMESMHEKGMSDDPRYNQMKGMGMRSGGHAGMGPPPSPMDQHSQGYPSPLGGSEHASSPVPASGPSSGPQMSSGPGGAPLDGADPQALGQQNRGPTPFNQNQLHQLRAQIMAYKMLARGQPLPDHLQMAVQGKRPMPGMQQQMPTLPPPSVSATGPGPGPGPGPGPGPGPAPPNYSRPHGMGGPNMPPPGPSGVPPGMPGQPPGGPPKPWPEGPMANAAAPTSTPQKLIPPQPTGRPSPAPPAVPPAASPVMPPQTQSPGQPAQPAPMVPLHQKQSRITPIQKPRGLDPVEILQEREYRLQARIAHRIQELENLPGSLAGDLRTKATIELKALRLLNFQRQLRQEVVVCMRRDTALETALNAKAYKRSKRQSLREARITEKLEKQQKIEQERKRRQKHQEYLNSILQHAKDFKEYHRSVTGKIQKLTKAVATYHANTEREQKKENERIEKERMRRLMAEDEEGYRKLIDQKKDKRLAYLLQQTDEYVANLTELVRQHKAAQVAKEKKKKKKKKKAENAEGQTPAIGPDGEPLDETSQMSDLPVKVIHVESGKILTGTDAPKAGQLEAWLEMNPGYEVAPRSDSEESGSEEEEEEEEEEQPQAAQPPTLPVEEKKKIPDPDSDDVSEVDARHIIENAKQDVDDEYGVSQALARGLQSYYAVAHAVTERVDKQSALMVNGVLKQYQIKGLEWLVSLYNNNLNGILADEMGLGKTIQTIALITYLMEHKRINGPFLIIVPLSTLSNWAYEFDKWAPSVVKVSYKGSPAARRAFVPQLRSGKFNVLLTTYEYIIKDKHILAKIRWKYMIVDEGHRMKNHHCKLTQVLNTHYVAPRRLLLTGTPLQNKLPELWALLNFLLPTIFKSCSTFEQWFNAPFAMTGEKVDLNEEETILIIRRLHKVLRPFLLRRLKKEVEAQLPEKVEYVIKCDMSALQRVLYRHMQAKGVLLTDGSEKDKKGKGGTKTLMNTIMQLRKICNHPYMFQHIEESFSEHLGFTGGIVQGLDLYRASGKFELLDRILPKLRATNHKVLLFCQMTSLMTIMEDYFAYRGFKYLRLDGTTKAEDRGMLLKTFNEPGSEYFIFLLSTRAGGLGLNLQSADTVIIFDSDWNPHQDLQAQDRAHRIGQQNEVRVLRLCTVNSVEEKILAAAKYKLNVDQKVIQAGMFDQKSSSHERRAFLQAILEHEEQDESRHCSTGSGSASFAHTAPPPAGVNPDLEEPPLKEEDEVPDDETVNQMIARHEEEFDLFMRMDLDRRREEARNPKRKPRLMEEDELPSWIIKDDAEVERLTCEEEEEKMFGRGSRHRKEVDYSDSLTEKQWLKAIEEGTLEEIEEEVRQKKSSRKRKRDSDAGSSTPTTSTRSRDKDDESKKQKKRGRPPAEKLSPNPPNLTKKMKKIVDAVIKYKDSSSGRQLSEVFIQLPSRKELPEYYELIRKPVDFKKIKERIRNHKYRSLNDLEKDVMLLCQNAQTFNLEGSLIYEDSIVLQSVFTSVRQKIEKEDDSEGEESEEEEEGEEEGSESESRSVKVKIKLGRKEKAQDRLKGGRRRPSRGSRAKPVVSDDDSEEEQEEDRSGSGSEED
Procedure, shortened: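 Degradation is scaled from DMSO-treated cells (0%) to cells given 2 μM of a known BRM/BRG1 degrader (100%). HeLa cells stably carrying HiBiT-BRG1 plus LgBiT (5000/well) were lysed with Nano-Glo HiBiT detection reagent, shaken 10 min at RT, and luminescence read.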

T1 sequence (P51531 whole entry, the tested form may be a part): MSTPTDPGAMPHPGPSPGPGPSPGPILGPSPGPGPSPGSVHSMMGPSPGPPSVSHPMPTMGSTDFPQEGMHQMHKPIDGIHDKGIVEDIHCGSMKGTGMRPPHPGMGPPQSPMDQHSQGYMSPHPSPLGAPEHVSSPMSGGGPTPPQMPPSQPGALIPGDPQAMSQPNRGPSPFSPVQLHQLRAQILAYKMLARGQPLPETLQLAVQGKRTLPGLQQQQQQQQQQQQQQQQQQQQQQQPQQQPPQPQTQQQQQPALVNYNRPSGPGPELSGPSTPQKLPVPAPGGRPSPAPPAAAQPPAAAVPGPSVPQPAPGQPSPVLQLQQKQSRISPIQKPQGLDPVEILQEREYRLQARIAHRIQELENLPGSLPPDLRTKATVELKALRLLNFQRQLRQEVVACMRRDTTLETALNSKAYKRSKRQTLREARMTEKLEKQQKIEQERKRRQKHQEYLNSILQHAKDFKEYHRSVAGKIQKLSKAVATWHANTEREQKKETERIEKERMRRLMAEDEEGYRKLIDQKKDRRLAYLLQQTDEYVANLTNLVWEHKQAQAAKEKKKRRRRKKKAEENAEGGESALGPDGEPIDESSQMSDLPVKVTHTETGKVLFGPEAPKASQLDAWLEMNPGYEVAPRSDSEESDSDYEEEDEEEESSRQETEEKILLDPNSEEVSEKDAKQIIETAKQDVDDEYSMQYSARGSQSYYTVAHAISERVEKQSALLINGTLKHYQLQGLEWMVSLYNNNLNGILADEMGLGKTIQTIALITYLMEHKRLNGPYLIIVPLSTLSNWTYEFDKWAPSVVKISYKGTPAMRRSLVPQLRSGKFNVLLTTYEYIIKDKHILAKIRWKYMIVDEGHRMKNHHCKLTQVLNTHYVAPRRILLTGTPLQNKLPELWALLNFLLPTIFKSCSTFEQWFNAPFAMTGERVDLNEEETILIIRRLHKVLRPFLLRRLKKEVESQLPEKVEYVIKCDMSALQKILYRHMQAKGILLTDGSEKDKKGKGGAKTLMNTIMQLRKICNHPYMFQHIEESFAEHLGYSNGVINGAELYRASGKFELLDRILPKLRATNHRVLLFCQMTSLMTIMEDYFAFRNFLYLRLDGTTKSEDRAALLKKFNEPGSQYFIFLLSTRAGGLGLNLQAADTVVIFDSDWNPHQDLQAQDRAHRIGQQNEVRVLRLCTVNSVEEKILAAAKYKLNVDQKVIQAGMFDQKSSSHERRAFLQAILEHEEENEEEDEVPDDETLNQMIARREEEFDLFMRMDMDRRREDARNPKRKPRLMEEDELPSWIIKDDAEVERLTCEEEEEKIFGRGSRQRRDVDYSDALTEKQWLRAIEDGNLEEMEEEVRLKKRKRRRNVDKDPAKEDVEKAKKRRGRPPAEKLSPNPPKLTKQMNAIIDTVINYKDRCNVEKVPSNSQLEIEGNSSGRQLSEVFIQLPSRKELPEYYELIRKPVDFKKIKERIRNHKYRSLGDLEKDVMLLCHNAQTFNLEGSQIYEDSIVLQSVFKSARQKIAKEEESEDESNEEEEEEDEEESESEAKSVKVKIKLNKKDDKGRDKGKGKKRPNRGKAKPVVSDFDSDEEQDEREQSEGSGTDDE

SMILES	DC50 (HiBit-BRM fusion protein) [µM]	BRM HiBit Degradation Maximum measured (HiBit-BRM fusion protein)	DC50 [1] [µM]	Dmax [1] [%]
CS(=O)(=O)n1ccc(C(=O)N[C@@H](CCOCCCC(=O)NCCOCCOCCNC(=O)COc2cccc3c2C(=O)N(C2CCC(=O)NC2=O)C3=O)C(=O)Nc2nc(-c3ccccc3)cs2)c1 (stereo partly drawn) [Compound 223, (2S)-4-[3-[(2-[2-[2-(2-[[2-(2,6-dioxopiperidin-3-yl)-1,3-dioxoisoindol-4-yl]oxy]acetamido)ethoxy]ethoxy]ethyl)carbamoyl]propoxy]-2-[(1-methanesulfonylpyrrol-3-yl)formamido]-N-(4-phenyl-1,3-thiazol-2-yl)butanamide]	> 10	C (‘C’ = Maximum degradation <50%)	> 10	< 50
CS(=O)(=O)n1ccc(C(=O)N[C@@H](CCOCCCC(=O)N2CC(CCOc3cccc4c3C(=O)N(C3CCC(=O)NC3=O)C4=O)C2)C(=O)Nc2nc(-c3ccccc3)cs2)c1 (stereo partly drawn) [Compound 224, (2S)-4-[4-[3-(2-[[2-(2,6-dioxopiperidin-3-yl)-1,3-dioxoisoindol-4-yl]oxy]ethyl)azetidin-1-yl]-4-oxobutoxy]-2-[(1-methanesulfonylpyrrol-3-yl)formamido]-N-(4-phenyl-1,3-thiazol-2-yl)butanamide]	> 10	C (‘C’ = Maximum degradation <50%)	> 10	< 50
Cc1ncsc1-c1ccc(CNC(=O)[C@@H]2C[C@@H](O)CN2C(=O)[C@@H](NC(=O)CCCCCNC(=O)CCCOC[C@H](NC(=O)c2ccn(S(C)(=O)=O)c2)C(=O)Nc2nc(-c3ccccc3)cs2)C(C)(C)C)cc1 [Compound 226, (2S,4R)-4-hydroxy-1-[(2S)-2-(6-[4-[(2S)-2-[(1-methanesulfonylpyrrol-3-yl)formamido]-2-[(4-phenyl-1,3-thiazol-2-yl)carbamoyl]ethoxy]butanamido]hexanamido)-3,3-dimethylbutanoyl]-N-[[4-(4-methyl-1,3-thiazol-5-yl)phenyl]methyl]pyrrolidine-2-carboxamide]	> 10	C (‘C’ = Maximum degradation <50%)	> 10	< 50
CS(=O)(=O)n1ccc(C(=O)N[C@@H](COCCCC(=O)NCCCCNc2ccc3c(c2)C(=O)N(C2CCC(=O)NC2=O)C3=O)C(=O)Nc2nc(-c3ccccc3)cs2)c1 (stereo partly drawn) [Compound 229, N-(4-[[2-(2,6-dioxopiperidin-3-yl)-1,3-dioxoisoindol-5-yl]amino]butyl)-4-[(2S)-2-[(1-methanesulfonylpyrrol-3-yl)formamido]-2-[(4-phenyl-1,3-thiazol-2-yl)carbamoyl]ethoxy]butanamide]	> 10	C (‘C’ = Maximum degradation <50%)	> 10	< 50
CS(=O)(=O)n1ccc(C(=O)N[C@@H](COCc2ccc(C(=O)N3CCN(CC4CN(c5ccc6c(c5)C(=O)N(C5CCC(=O)NC5=O)C6=O)C4)CC3)cc2)C(=O)Nc2nc(-c3ccccc3)cs2)c1.O=CO (stereo partly drawn) [Compound 231, (2S)-3-([4-[4-([1-[2-(2,6-dioxopiperidin-3-yl)-1,3-dioxoisoindol-5-yl]azetidin-3-yl]methyl)piperazine-1-carbonyl]phenyl]methoxy)-2-[(1-methanesulfonylpyrrol-3-yl)formamido]-N-(4-phenyl-1,3-thiazol-2-yl)propanamide; formic acid]	> 10	C (‘C’ = Maximum degradation <50%)	> 10	< 50
Cc1ncsc1-c1ccc(CNC(=O)[C@@H]2C[C@@H](O)CN2C(=O)[C@@H](NC(=O)CCCCCNC(=O)c2ccc(COC[C@H](NC(=O)c3ccn(S(C)(=O)=O)c3)C(=O)Nc3nc(-c4ccccc4)cs3)cc2)C(C)(C)C)cc1 [Compound 232, (2S,4R)-4-hydroxy-1-[(2S)-2-[6-[(4-[[(2S)-2-[(1-methanesulfonylpyrrol-3-yl)formamido]-2-[(4-phenyl-1,3-thiazol-2-yl)carbamoyl]ethoxy]methyl]phenyl)formamido]hexanamido]-3,3-dimethylbutanoyl]-N-[[4-(4-methyl-1,3-thiazol-5-yl)phenyl]methyl]pyrrolidine-2-carboxamide]	> 10	C (‘C’ = Maximum degradation <50%)	> 10	< 50
CS(=O)(=O)n1ccc(C(=O)N[C@@H](COCc2ccc(C(=O)N3CCN(CCCCCOc4ccc5c(c4)C(=O)N(C4CCC(=O)NC4=O)C5=O)CC3)cc2)C(=O)Nc2nc(-c3ccccc3)cs2)c1 (stereo partly drawn) [Compound 233, (2S)-3-([4-[4-(5-[[2-(2,6-dioxopiperidin-3-yl)-1,3-dioxoisoindol-5-yl]oxy]pentyl)piperazine-1-carbonyl]phenyl]methoxy)-2-[(1-methanesulfonylpyrrol-3-yl)formamido]-N-(4-phenyl-1,3-thiazol-2-yl)propanamide]	> 10	C (‘C’ = Maximum degradation <50%)	0.1 to 1	50 to 75
CS(=O)(=O)n1ccc(C(=O)N[C@@H](COCc2ccc(C(=O)N3CC4(CCN(CCCNc5ccc6c(c5)C(=O)N(C5CCC(=O)NC5=O)C6=O)CC4)C3)cc2)C(=O)Nc2nc(-c3ccccc3)cs2)c1 (stereo partly drawn) [Compound 234, (2S)-3-([4-[7-(3-[[2-(2,6-dioxopiperidin-3-yl)-1,3-dioxoisoindol-5-yl]amino]propyl)-2,7-diazaspiro[3.5]nonane-2-carbonyl]phenyl]methoxy)-2-[(1-methanesulfonylpyrrol-3-yl)formamido]-N-(4-phenyl-1,3-thiazol-2-yl)propanamide]	0.1 to 1	B (‘B’ = Maximum degradation ≥50% and ≤75%)	0.1 to 1	50 to 75
CS(=O)(=O)n1ccc(C(=O)N[C@@H](COCc2ccc(C(=O)N3CCN(CCCOc4ccc5c(c4)C(=O)N(C4CCC(=O)NC4=O)C5=O)CC3)cc2)C(=O)Nc2nc(-c3ccccc3)cs2)c1 (stereo partly drawn) [Compound 235, (2S)-3-([4-[4-(3-[[2-(2,6-dioxopiperidin-3-yl)-1,3-dioxoisoindol-5-yl]oxy]propyl)piperazine-1-carbonyl]phenyl]methoxy)-2-[(1-methanesulfonylpyrrol-3-yl)formamido]-N-(4-phenyl-1,3-thiazol-2-yl)propanamide]	> 10	C (‘C’ = Maximum degradation <50%)	> 10	< 50

Other lines, results leading:

DC50 (HiBit-BRM fusion protein) [µM]	BRM HiBit Degradation Maximum measured (HiBit-BRM fusion protein)	DC50 [1] [µM]	Dmax [1] [%]	SMILES
> 10	C (‘C’ = Maximum degradation <50%)	> 10	< 50	Cc1ncsc1-c1ccc(CNC(=O)[C@@H]2C[C@@H](O)CN2C(=O)[C@@H](NC(=O)COCCOCCOCCNC(=O)CCCOC[C@H](NC(=O)c2ccn(S(C)(=O)=O)c2)C(=O)Nc2nc(-c3ccccc3)cs2)C(C)(C)C)cc1 [Compound 225, (2S,4R)-4-hydroxy-1-[(2S)-2-(2-[2-[2-(2-[4-[(2S)-2-[(1-methanesulfonylpyrrol-3-yl)formamido]-2-[(4-phenyl-1,3-thiazol-2-yl)carbamoyl]ethoxy]butanamido]ethoxy)ethoxy]ethoxy]acetamido)-3,3-dimethylbutanoyl]-N-[[4-(4-methyl-1,3-thiazol-5-yl)phenyl]methyl]pyrrolidine-2-carboxamide]
> 10	C (‘C’ = Maximum degradation <50%)	> 10	< 50	Cc1ncsc1-c1ccc(CNC(=O)[C@@H]2C[C@@H](O)CN2C(=O)[C@@H](NC(=O)CCCCCCCNC(=O)CCCOC[C@H](NC(=O)c2ccn(S(C)(=O)=O)c2)C(=O)Nc2nc(-c3ccccc3)cs2)C(C)(C)C)cc1 [Compound 227, (2S,4R)-4-hydroxy-1-[(2S)-2-(8-[4-[(2S)-2-[(1-methanesulfonylpyrrol-3-yl)formamido]-2-[(4-phenyl-1,3-thiazol-2-yl)carbamoyl]ethoxy]butanamido]octanamido)-3,3-dimethylbutanoyl]-N-[[4-(4-methyl-1,3-thiazol-5-yl)phenyl]methyl]pyrrolidine-2-carboxamide]
> 10	C (‘C’ = Maximum degradation <50%)	> 10	< 50	CS(=O)(=O)n1ccc(C(=O)N[C@@H](COCCCC(=O)NCCOc2ccc3c(c2)C(=O)N(C2CCC(=O)NC2=O)C3=O)C(=O)Nc2nc(-c3ccccc3)cs2)c1 (some centres unmarked) [Compound 228]
> 10	C (‘C’ = Maximum degradation <50%)	> 10	< 50	CS(=O)(=O)n1ccc(C(=O)N[C@@H](COCCCC(=O)NCCCCCCNc2ccc3c(c2)C(=O)N(C2CCC(=O)NC2=O)C3=O)C(=O)Nc2nc(-c3ccccc3)cs2)c1 (stereo partly drawn) [Compound 230, N-(6-[[2-(2,6-dioxopiperidin-3-yl)-1,3-dioxoisoindol-5-yl]amino]hexyl)-4-[(2S)-2-[(1-methanesulfonylpyrrol-3-yl)formamido]-2-[(4-phenyl-1,3-thiazol-2-yl)carbamoyl]ethoxy]butanamide]
> 10	C (‘C’ = Maximum degradation <50%)	> 10	< 50	CS(=O)(=O)n1ccc(C(=O)N[C@@H](COCc2ccc(C(=O)NCCOCCOCCOCCNC(=O)COc3cccc4c3C(=O)N(C3CCC(=O)NC3=O)C4=O)cc2)C(=O)Nc2nc(-c3ccccc3)cs2)c1 (stereo partly drawn) [Compound 236, N-((2S)-3-((4-((1-((2-(2,6-dioxopiperidin-3-yl)-1,3-dioxoisoindolin-4-yl)oxy)-2-oxo-6,9,12-trioxa-3-azatetradecan-14-yl)carbamoyl)benzyl)oxy)-1-oxo-1-((4-phenylthiazol-2-yl)amino)propan-2-yl)-1-(methylsulfonyl)-1H-pyrrole-3-carboxamide]

From patent US12662479B2 (Foghorn Therapeutics Inc., priority 2020, dated 2026)
